# Experimental data published in ChEMBL document CHEMBL3045800 (2003).
# Columns and labels:
# [1] = test system: Oryza sativa; format: functional,  cv. Nipponbare
# [2] = test system: Pyricularia oryzae; experiment: Inhibition of mycelial growth in Magnaporthe oryzae at 800 ppm after 7 days by hyphal growth inhibition assay; format: functional; details: 168 h, read-out: INH
# [3] = test system: Pyricularia oryzae; experiment: Inhibition of appressorium formation in Magnaporthe oryzae at 80 ppm after 48 hr by microscopy based cellulose membrane method; format: functional; details: read-out: INH
# [4] = test system: Pyricularia oryzae; experiment: Inhibition of appressorium formation in Magnaporthe oryzae at 40 ppm after 48 hr by microscopy based cellulose membrane method; format: functional; details: read-out: INH
# [5] = test system: Pyricularia oryzae; experiment: Inhibition of appressorium formation in Magnaporthe oryzae at 20 ppm after 48 hr by microscopy based cellulose membrane method; format: functional; details: read-out: INH
# [6] = test system: Pyricularia oryzae; experiment: Inhibition of mycelial growth in Magnaporthe oryzae at 400 ppm after 7 days by hyphal growth inhibition assay; format: functional; details: 168 h, read-out: INH
# [7] = test system: Pyricularia oryzae; experiment: Inhibition of appressorium formation in Magnaporthe oryzae at 100 ppm after 48 hr by microscopy based cellulose membrane method; format: functional; details: read-out: INH
# [8] = test system: Pyricularia oryzae; experiment: Inhibition of spore germination in Magnaporthe oryzae at 100 ppm after 48 hr; format: functional; details: read-out: INH
# [9] = test system: Pyricularia oryzae; experiment: Inhibition of spore germination in Magnaporthe oryzae at 40 ppm after 48 hr; format: functional; details: read-out: INH
# [10] = test system: Pyricularia oryzae; experiment: Inhibition of spore germination in Magnaporthe oryzae at 20 ppm after 48 hr; format: functional; details: read-out: INH
# [11] = test system: Pyricularia oryzae; experiment: Inhibition of spore germination in Magnaporthe oryzae at 80 ppm after 48 hr; format: functional; details: read-out: INH
# [12] = test system: Pyricularia oryzae; experiment: Inhibition of mycelial growth in Magnaporthe oryzae at 1000 ppm after 7 days by hyphal growth inhibition assay; format: functional; details: 168 h, read-out: INH
# [13] = test system: Pyricularia oryzae; experiment: Inhibition of mycelial growth in Magnaporthe oryzae at 200 ppm after 7 days by hyphal growth inhibition assay; format: functional; details: 168 h, read-out: INH
smiles,measurement,setting,value
Cn1ncc(C(=O)O)c1Cl,ED80,[1],>5 mg
Cn1cc(C(=O)O)c(Cl)n1,ED80,[1],0.5 mg
COC(=O)Nc1cc(Cl)nn1C,ED80,[1],>5 mg
Cn1nc(Cl)cc1CC(=O)O,ED80,[1],5 mg
CC(=O)c1cc(Cl)nn1C,ED80,[1],5 mg
Cn1nc(Cl)cc1C=O,ED80,[1],>5 mg
COC(=O)c1cc(Cl)nn1C,ED80,[1],0.05 mg
Cn1nc(Br)cc1C(=O)O,ED80,[1],0.05 mg
Cc1cc(C(=O)O)n(C)n1,ED80,[1],0.5 mg
Cn1nccc1C(=O)O,ED80,[1],>5 mg
Cn1nc(Cl)cc1C(=O)O [3-CHLORO-1-METHYL-1H-PYRAZOLE-5-CARBOXYLIC ACID],inhibition at 800 ppm,[2],0%
same,inhibition at 80 ppm,[3],10%
same,inhibition at 40 ppm,[4],0%
same,inhibition at 20 ppm,[5],0%
same,inhibition at 400 ppm,[6],0%
same,inhibition at 100 ppm,[7],41.6%
same,inhibition at 100 ppm,[8],35.4%
same,inhibition at 40 ppm,[9],0%
same,inhibition at 20 ppm,[10],0%
same,inhibition at 80 ppm,[11],0%
same,ED80,[1],0.05 mg
same,inhibition at 1000 ppm,[12],47.5%
same,inhibition at 200 ppm,[13],0%
